Data reported in ChEMBL document CHEMBL3991601, “The target landscape of clinical kinase drugs” (Science, 2017).
The source made the active and inactive calls. On the calls: in the data inactive means no Kd found up to 30 µM.

Tests used:
[1] = biological target: PAS domain-containing serine/threonine-protein kinase (Homo sapiens, UniProt Q96RG2)
[2] = biological target: T1, Cyclin-dependent kinase-like 5 (Homo sapiens, UniProt O76039)
T1 sequence (O76039 whole entry): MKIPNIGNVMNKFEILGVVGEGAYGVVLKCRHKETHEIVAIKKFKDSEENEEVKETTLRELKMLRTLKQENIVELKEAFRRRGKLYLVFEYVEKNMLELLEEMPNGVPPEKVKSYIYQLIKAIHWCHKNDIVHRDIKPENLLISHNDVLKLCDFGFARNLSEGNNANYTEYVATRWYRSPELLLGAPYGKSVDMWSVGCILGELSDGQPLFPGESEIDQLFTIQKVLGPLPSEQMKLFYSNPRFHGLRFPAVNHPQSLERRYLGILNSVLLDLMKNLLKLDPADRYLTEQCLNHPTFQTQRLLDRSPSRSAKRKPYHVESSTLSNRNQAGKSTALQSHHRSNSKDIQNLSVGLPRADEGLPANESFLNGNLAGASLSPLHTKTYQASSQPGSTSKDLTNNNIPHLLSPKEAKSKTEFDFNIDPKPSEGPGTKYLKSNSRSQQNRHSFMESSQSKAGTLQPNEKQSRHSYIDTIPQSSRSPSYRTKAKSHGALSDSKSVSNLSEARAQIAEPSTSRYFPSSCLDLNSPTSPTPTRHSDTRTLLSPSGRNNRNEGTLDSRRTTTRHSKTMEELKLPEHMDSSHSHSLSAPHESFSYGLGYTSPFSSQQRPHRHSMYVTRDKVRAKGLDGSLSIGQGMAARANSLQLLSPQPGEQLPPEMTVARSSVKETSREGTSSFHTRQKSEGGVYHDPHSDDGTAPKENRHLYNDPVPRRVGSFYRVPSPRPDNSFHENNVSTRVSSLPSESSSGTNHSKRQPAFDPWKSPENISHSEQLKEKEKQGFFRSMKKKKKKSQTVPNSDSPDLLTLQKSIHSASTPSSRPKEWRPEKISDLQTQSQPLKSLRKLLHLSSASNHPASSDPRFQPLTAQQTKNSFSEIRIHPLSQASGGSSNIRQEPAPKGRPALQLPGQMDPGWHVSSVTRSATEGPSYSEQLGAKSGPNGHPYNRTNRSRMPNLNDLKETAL

[3] = biological target: Phosphatidylethanolamine-binding protein 1 (Homo sapiens, UniProt P30086)
Phosphatidylethanolamine-binding protein 1, sequence (P30086 whole entry): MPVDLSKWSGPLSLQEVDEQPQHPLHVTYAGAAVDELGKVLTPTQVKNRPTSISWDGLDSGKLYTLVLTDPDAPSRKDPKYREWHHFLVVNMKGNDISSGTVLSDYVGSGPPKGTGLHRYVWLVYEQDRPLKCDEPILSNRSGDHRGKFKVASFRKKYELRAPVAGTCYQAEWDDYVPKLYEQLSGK

[4] = biological target: T2, Eukaryotic translation initiation factor 5B (Homo sapiens, UniProt O60841)
T2 sequence (O60841 whole entry): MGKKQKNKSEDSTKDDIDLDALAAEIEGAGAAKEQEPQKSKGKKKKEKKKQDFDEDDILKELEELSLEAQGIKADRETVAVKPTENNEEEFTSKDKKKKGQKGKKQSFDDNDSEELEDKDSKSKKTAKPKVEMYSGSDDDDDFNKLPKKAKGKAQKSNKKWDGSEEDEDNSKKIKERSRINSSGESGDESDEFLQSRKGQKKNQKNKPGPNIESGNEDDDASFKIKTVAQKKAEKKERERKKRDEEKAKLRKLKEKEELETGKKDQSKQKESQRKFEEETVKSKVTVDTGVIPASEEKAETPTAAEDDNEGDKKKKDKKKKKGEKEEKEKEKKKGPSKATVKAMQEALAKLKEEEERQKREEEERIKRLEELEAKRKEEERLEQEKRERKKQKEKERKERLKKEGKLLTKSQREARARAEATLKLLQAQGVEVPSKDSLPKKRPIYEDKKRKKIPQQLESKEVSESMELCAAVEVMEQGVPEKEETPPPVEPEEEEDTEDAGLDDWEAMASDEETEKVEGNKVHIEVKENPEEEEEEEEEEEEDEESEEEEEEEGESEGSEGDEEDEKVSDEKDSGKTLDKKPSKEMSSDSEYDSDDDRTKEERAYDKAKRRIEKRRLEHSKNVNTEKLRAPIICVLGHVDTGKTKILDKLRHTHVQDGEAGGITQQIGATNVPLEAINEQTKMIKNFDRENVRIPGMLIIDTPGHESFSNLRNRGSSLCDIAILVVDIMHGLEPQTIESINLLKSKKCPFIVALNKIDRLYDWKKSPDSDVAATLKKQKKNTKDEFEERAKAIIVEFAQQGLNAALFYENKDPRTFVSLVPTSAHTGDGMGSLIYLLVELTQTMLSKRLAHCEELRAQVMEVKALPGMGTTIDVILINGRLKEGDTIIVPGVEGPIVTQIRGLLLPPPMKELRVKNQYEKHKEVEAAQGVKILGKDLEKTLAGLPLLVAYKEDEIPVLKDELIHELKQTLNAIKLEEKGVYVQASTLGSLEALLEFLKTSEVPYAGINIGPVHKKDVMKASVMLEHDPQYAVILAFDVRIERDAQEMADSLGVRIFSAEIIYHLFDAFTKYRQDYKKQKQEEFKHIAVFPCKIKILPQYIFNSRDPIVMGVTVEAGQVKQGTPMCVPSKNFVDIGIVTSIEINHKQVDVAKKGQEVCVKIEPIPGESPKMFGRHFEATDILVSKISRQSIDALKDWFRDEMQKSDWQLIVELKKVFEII

[5] = biological target: Uncharacterized aarF domain-containing protein kinase 5 (Homo sapiens, UniProt Q3MIX3)
Uncharacterized aarF domain-containing protein kinase 5, sequence (Q3MIX3 whole entry, the tested form may be a part): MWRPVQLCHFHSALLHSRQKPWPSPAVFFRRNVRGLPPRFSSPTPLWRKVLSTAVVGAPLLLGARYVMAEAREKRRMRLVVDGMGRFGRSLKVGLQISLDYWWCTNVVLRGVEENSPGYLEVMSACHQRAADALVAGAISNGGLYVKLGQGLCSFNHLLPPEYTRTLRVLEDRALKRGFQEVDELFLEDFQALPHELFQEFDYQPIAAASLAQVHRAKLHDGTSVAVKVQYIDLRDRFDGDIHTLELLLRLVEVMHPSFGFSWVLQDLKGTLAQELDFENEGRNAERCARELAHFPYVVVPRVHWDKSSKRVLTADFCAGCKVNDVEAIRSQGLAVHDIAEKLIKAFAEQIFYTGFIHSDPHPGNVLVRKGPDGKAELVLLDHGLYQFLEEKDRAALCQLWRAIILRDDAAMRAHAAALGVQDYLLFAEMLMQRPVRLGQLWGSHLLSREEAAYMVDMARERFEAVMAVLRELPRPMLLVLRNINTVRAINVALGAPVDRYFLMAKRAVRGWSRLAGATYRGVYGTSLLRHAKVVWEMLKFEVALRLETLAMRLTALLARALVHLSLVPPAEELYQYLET

[6] = biological target: Dual specificity testis-specific protein kinase 2 (Homo sapiens, UniProt Q96S53)
Dual specificity testis-specific protein kinase 2, sequence (Q96S53 whole entry): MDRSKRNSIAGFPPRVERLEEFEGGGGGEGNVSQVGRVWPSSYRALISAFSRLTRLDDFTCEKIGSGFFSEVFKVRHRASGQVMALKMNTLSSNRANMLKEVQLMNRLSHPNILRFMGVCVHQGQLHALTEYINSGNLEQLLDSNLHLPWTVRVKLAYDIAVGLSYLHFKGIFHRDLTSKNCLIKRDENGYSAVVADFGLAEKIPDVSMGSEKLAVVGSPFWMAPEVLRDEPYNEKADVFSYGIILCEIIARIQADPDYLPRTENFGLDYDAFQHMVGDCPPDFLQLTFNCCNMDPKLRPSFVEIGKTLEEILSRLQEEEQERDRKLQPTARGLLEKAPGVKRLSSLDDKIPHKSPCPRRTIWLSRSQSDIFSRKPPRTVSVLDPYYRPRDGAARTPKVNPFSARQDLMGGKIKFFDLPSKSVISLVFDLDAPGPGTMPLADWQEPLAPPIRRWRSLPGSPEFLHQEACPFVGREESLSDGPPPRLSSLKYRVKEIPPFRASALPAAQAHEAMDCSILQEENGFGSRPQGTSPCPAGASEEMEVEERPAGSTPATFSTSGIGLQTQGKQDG

PAS domain-containing serine/threonine-protein kinase, sequence (Q96RG2 whole entry, the tested form may be a part): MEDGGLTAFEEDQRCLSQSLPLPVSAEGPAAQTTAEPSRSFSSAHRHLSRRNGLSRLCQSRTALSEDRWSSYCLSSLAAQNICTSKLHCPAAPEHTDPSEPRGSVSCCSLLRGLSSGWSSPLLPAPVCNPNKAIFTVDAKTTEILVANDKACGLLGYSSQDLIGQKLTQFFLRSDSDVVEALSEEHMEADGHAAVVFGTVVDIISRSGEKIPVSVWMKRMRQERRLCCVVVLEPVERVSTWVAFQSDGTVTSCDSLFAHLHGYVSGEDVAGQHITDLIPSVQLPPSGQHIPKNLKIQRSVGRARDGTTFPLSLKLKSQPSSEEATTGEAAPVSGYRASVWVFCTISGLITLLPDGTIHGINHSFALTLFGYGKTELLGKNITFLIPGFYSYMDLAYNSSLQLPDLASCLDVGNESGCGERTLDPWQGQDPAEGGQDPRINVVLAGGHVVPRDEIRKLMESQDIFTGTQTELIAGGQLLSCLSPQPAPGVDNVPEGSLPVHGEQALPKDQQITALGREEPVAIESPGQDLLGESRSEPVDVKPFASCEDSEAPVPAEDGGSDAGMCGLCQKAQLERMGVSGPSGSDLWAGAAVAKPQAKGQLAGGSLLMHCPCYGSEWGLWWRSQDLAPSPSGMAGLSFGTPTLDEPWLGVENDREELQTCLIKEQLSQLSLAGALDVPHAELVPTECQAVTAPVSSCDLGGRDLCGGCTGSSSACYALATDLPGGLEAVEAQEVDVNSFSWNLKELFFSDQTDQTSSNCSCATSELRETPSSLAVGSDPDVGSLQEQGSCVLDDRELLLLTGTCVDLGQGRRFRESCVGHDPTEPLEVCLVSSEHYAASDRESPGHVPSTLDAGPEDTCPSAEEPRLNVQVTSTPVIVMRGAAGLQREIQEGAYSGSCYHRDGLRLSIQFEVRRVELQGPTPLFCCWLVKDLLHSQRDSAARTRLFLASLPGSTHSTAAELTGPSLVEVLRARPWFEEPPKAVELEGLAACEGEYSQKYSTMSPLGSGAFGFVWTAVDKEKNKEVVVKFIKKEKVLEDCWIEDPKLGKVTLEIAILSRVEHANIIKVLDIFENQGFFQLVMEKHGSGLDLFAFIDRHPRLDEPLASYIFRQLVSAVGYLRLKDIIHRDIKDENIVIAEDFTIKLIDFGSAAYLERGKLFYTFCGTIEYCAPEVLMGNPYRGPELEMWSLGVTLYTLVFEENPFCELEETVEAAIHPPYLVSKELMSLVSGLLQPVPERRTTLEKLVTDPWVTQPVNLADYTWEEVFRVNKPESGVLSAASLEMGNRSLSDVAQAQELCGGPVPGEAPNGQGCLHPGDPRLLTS

| SMILES | Kd [1] | Kd [2] | Kd [3] | Kd [4] | Kd [5] | Kd [6] |
| --- | --- | --- | --- | --- | --- | --- |
| O=c1sn(-c2cccc3ccccc23)c(=O)n1Cc1ccccc1 [TIDEGLUSIB] | > 30 µM (inactive) | > 30 µM (inactive) | – | – | – | – |
| Cn1ncc(Cl)c1-c1cc(C(=O)N[C@H](CN)Cc2cccc(F)c2)sc1Cl [AFURESERTIB] | – | – | > 30 µM (inactive) | > 30 µM (inactive) | – | – |
| CNS(=O)(=O)Nc1nccc(Cc2c(C)c3ccc(Oc4ncccn4)cc3oc2=O)c1F [AVUTOMETINIB] | > 30 µM (inactive) | – | > 30 µM (inactive) | > 30 µM (inactive) | > 30 µM (inactive) | > 30 µM (inactive) |
| COc1ccc(-c2ccc3c(N4CCOC[C@@H]4C)nc(N4CCOC[C@@H]4C)nc3n2)cc1CO [AZD-8055] | > 30 µM (inactive) | – | > 30 µM (inactive) | > 30 µM (inactive) | – | > 30 µM (inactive) |
| C[C@@H](Nc1cc(F)cc(F)c1)c1cc(C(=O)N(C)C)cc2c(=O)cc(N3CCOCC3)oc12 [AZD-8186] | – | > 30 µM (inactive) | – | – | – | – |
| CCCS(=O)(=O)Nc1ccc(F)c(C(=O)c2c[nH]c3ncc(-c4ccc(Cl)cc4)cc23)c1F [VEMURAFENIB] | – | – | > 30 µM (inactive) | – | > 30 µM (inactive) | > 30 µM (inactive) |
| CNC(=O)c1ccc(C)c(-n2c(C)cc(OCc3ccc(F)cc3F)c(Br)c2=O)c1 [PH-797804] | > 30 µM (inactive) | – | > 30 µM (inactive) | > 30 µM (inactive) | > 30 µM (inactive) | – |
| C[C@@H](c1ccc2nccn2c1)n1nnc2ncc(-c3cnn(C)c3)nc21 [SAVOLITINIB] | – | – | > 30 µM (inactive) | > 30 µM (inactive) | – | > 30 µM (inactive) |
| CN1CCC(COc2cnc(-c3cccc(Cn4nc(-c5cccc(C#N)c5)ccc4=O)c3)nc2)CC1 [TEPOTINIB] | > 30 µM (inactive) | – | > 30 µM (inactive) | > 30 µM (inactive) | > 30 µM (inactive) | > 30 µM (inactive) |
| CCn1c(=O)c(-c2cc[nH]n2)cc2c(C)nc(N)nc21 [VOXTALISIB] | – | – | > 30 µM (inactive) | > 30 µM (inactive) | – | – |
| C=CC(=O)N1CCC(Oc2cc3c(Nc4ccc(Cl)c(Cl)c4F)ncnc3cc2OC)CC1 [POZIOTINIB] | – | > 30 µM (inactive) | – | > 30 µM (inactive) | – | > 30 µM (inactive) |
| Cc1ccc(-n2nc(C(C)(C)C)cc2NC(=O)NCc2cc(F)ccc2Oc2ccc3c(cnn3CCO)c2)cc1 [PEXMETINIB] | > 30 µM (inactive) | – | > 30 µM (inactive) | > 30 µM (inactive) | – | – |
| Cc1cn(-c2cc(NC(=O)c3ccc(C)c(Nc4nccc(-c5cccnc5)n4)c3)cc(C(F)(F)F)c2)cn1 [NILOTINIB] | > 30 µM (inactive) | – | > 30 µM (inactive) | > 30 µM (inactive) | – | > 30 µM (inactive) |
| CNC(=O)c1cc(Oc2ccc(NC(=O)Nc3ccc(Cl)c(C(F)(F)F)c3)c(F)c2)ccn1 [REGORAFENIB] | > 30 µM (inactive) | – | > 30 µM (inactive) | > 30 µM (inactive) | – | > 30 µM (inactive) |
| CN1N=C(N)c2cn([C@@H]3O[C@H](COP(=O)(O)O)[C@@H](O)[C@H]3O)c3ncnc1c23 [TRICIRIBINE PHOSPHATE] | – | – | > 30 µM (inactive) | > 30 µM (inactive) | – | – |
| Cc1cc(Nc2cc(N3CCN(C)CC3)nc(/C=C/c3ccccc3)n2)n[nH]1 [ENMD-2076] | > 30 µM (inactive) | – | > 30 µM (inactive) | > 30 µM (inactive) | > 30 µM (inactive) | > 30 µM (inactive) |

| SMILES | Kd [1] | Kd [2] | Kd [3] | Kd [4] | Kd [5] | Kd [6] |
| --- | --- | --- | --- | --- | --- | --- |
| CC[C@@H]1C(=O)N(C)c2cnc(Nc3ccc(C(=O)N[C@H]4CC[C@H](N5CCN(CC6CC6)CC5)CC4)cc3OC)nc2N1C(C)C [VOLASERTIB] | > 30 µM (inactive) | – | > 30 µM (inactive) | > 30 µM (inactive) | > 30 µM (inactive) | > 30 µM (inactive) |
| CN1CC[C@@H](c2c(O)cc(O)c3c(=O)cc(-c4ccccc4Cl)oc23)[C@@H]1CO | > 30 µM (inactive) | 0.024 µM | > 30 µM (inactive) | > 30 µM (inactive) | – | – |
| Cc1ccc(S(=O)(=O)Nc2nc3ccccc3nc2Nc2ccc3nsnc3c2)cc1 | > 30 µM (inactive) | > 30 µM (inactive) | – | > 30 µM (inactive) | – | – |
| Cc1nc(N)sc1-c1ccnc(Nc2ccc(N3CCOCC3)cc2)n1 [CYC-116] | > 30 µM (inactive) | – | > 30 µM (inactive) | > 30 µM (inactive) | – | > 30 µM (inactive) |
| COc1cc2nccc(Oc3ccc(NC(=O)NC4CC4)c(Cl)c3)c2cc1C(N)=O [LENVATINIB] | > 30 µM (inactive) | – | > 30 µM (inactive) | > 30 µM (inactive) | > 30 µM (inactive) | – |
| CCS(=O)(=O)N1CC(CC#N)(n2cc(-c3ncnc4[nH]ccc34)cn2)C1 [BARICITINIB] | > 30 µM (inactive) | – | > 30 µM (inactive) | > 30 µM (inactive) | > 30 µM (inactive) | – |
| Cc1c(F)cc(C(=O)NC2CC2)cc1-c1ccc(C(=O)NCC(C)(C)C)cn1 [LOSMAPIMOD] | > 30 µM (inactive) | – | – | > 30 µM (inactive) | – | > 30 µM (inactive) |
| CCn1c(-c2nonc2N)nc2c(C#CC(C)(C)O)ncc(OC[C@H]3CCCNC3)c21 [GSK-690693] | 1.07 µM | – | > 30 µM (inactive) | – | – | – |
| CO[C@H]1C[C@@H]2CC[C@@H](C)[C@@](O)(O2)C(=O)C(=O)N2CCCC[C@H]2C(=O)O[C@H]([C@H](C)C[C@@H]2CC[C@@H](OCCO)[C@H](OC)C2)CC(=O)[C@H](C)/C=C(\C)[C@@H](O)[C@@H](OC)C(=O)[C@H](C)C[C@H](C)/C=C/C=C/C=C/1C [EVEROLIMUS] | > 30 µM (inactive) | – | > 30 µM (inactive) | > 30 µM (inactive) | – | > 30 µM (inactive) |
| CCN1CCN(Cc2ccc(-c3cc4c(N[C@H](C)c5ccccc5)ncnc4[nH]3)cc2)CC1 [AEE-788] | > 30 µM (inactive) | – | > 30 µM (inactive) | > 30 µM (inactive) | > 30 µM (inactive) | – |
| C1=C/COCc2cc(ccc2OCCN2CCCC2)Nc2nccc(n2)-c2cccc(c2)COC/1 [PACRITINIB] | > 30 µM (inactive) | > 30 µM (inactive) | > 30 µM (inactive) | > 30 µM (inactive) | – | – |
| CN1CCN(c2ccc3nc(-c4c(N)c5c(F)cccc5[nH]c4=O)[nH]c3c2)CC1 [DOVITINIB] | > 30 µM (inactive) | – | – | – | > 30 µM (inactive) | > 30 µM (inactive) |
| Nc1nc(N)c2nc(-c3cccc(O)c3)c(-c3cccc(O)c3)nc2n1 [TG100-115] | – | – | – | > 30 µM (inactive) | – | > 30 µM (inactive) |
| O=C(Nc1ccc(-c2ccnc(Nc3ccc(N4CCOCC4)cc3)n2)cc1)C1CCCN1 (configuration not stated) [XL-019] | > 30 µM (inactive) | > 30 µM (inactive) | > 30 µM (inactive) | > 30 µM (inactive) | – | – |
| Cc1cc([C@@H](C)Nc2ccccc2C(=O)O)c2nc(N3CCOCC3)cc(=O)n2c1 [AZD-6482] | > 30 µM (inactive) | – | > 30 µM (inactive) | > 30 µM (inactive) | > 30 µM (inactive) | > 30 µM (inactive) |
